Test results reported in patent US4132846A.
Values after ≈ are worked out from the molar mass of the structure shown. Where two headings read alike, the source gives them in different places.

Key:
Escherichia coli KY 8327 [1] = experiment: MIC, agar dilution method at pH 7.2; assay type: cell-based; conditions: KY8327, Escherichia coli KY 8327 (produces gentamicin adenyltransferase), read-out: Minimum Inhibitory Concentration
From the text: (§1) Anti-bacterial Spectrum (Minimum Inhibitory Concentration, mcg/ml)
^1 produces gentamicin adenyltransferase

[2] = system: Staphylococcus aureus ATC 6538P; experiment: MIC, agar dilution method at pH 8.0; assay type: cell-based; conditions: ATC6538P
Providencia sp. 164 = experiment: MIC, agar dilution method at pH 7.2; assay type: cell-based; conditions: Providencia sp. 164 (gentamicin acetyltransferase Type II), read-out: Minimum Inhibitory Concentration
[3] = system: Bacillus subtilis No. 10707; experiment: MIC, agar dilution method at pH 8.0; assay type: cell-based
[4] = system: Shigella sonnei ATCC 9290; experiment: microbe, parasite or virus in culture; assay type: cell-based; conditions: ATCC9290, agar dilution, pH 8.0, read-out: minimum Inhibitory Concentration
Escherichia coli KY 8349 = experiment: MIC, agar dilution method at pH 7.2; assay type: cell-based; conditions: KY8349, Escherichia coli KY 8349 (neomycin-kanamycin phosphototransferase Type I), read-out: Minimum Inhibitory Concentration
From the text: ^4 produces neomycin-kanamycin phosphototransferase Type I

Escherichia coli KY 8321 = experiment: MIC, agar dilution method at pH 7.2; assay type: cell-based; conditions: KY8321, Escherichia coli KY 8321 (gentamicin adenyltransferase and neomycin-kanamycin phosphotransferase Type II), read-out: Minimum Inhibitory Concentration
From the text: ^2 produces gentamicin adenyltransferase and neomycin-kanamycin
phosphotransferase Type II

[5] = system: Pseudomonas aeruginosa BMH 1; experiment: MIC, agar dilution method at pH 8.0; assay type: cell-based; conditions: BMH1, read-out: minimum Inhibitory Concentration
[6] = system: Klebsiella pneumoniae ATCC 10031; experiment: MIC, agar dilution method at pH 8.0; assay type: cell-based; conditions: ATCC10031, pH 8, read-out: minimum Inhibitory Concentration
[7] = system: Pseudomonas aeruginosa KY 8512; experiment: MIC, agar dilution method at pH 7.2; assay type: cell-based; conditions: KY8512, Pseudomonas aeruginosa KY 8512 (neomycin-kanamycin phosphotransferase Type I and II, streptomycin phosphotransferase), read-out: Minimum Inhibitory Concentration
From the text: as §1
^7 produces neomycin-kanamycin phosphotransferase Type I and Type II
and streptomycin phosphotransferase

Escherichia coli ATC 26 = experiment: MIC, agar dilution method at pH 8.0; assay type: cell-based; conditions: ATC26, read-out: minimum Inhibitory Concentration
Escherichia coli KY 8327 [8] = experiment: MIC, agar dilution method at pH 8.0; assay type: cell-based; conditions: KY8327, Escherichia coli KY 8327 (produces gentamicin adenyltransferase), read-out: minimum Inhibitory Concentration
From the text: (§2) The former bacterium inactivates kanamycins and gentamicins by adenylation, and the latter inactivates gentamicins by acetylation.

Escherichia coli KY 8348 [9] = experiment: MIC, agar dilution method at pH 8.0; assay type: cell-based; conditions: KY8348, Escherichia coli KY 8348 (produces gentamicin acetyltransferase Type I), read-out: minimum Inhibitory Concentration
From the text: as §2

[10] = system: Salmonella typhosa ATCC 9992; experiment: MIC, agar dilution method at pH 8.0; assay type: cell-based; conditions: Salmonella enterica, pH 8, read-out: minimum Inhibitory Concentration
[11] = system: Proteus vulgaris ATCC 6897; experiment: microbe, parasite or virus in culture; assay type: cell-based; conditions: ATCC6897, pH 8, read-out: minimum Inhibitory Concentration
[12] = system: Klebsiella pneumoniae No. 8045; experiment: MIC, agar dilution method at pH 7.2; assay type: cell-based; conditions: read-out: Minimum Inhibitory Concentration
From the text: as §1

[13] = system: Staphylococus aureus Smith; experiment: MIC, agar dilution method at pH 7.2; assay type: cell-based
From the text: as §1

[14] = system: Bacillus subtilis ATCC 6633; experiment: MIC, agar dilution method at pH 7.2; assay type: cell-based; conditions: ATCC6633, read-out: Minimum Inhibitory Concentration
From the text: as §1

Proteus morganii KY 4298 = experiment: MIC, agar dilution method at pH 7.2; assay type: cell-based; conditions: Morganella morganii, KY4298, pH 7.2, read-out: Minimum Inhibitory Concentration
From the text: as §1

Sarcina lutea ATCC 9341 = experiment: MIC, agar dilution method at pH 7.2; assay type: cell-based; conditions: Micrococcus luteus, ATCC9341, read-out: Minimum Inhibitory Concentration
From the text: as §1

[15] = system: Pseudomonas aeruginosa BMH 1; experiment: MIC, agar dilution method at pH 7.2; assay type: cell-based; conditions: BMH1, read-out: Minimum Inhibitory Concentration
From the text: as §1

Proteus mirabilis 1287 = experiment: MIC, agar dilution method at pH 7.2; assay type: cell-based; conditions: read-out: Minimum Inhibitory Concentration
From the text: as §1

[16] = system: Staphylococcus aureus 209 P; experiment: MIC, agar dilution method at pH 7.2; assay type: cell-based; conditions: read-out: Minimum Inhibitory Concentration
From the text: as §1

Proteus vulgaris 6897 = experiment: MIC, agar dilution method at pH 7.2; assay type: cell-based
From the text: as §1

Escherichia coli T-5 = experiment: MIC, agar dilution method at pH 7.2; assay type: cell-based; conditions: T5, read-out: Minimum Inhibitory Concentration
From the text: as §1

Escherichia coli T-2 = experiment: MIC, agar dilution method at pH 7.2; assay type: cell-based; conditions: T2, read-out: Minimum Inhibitory Concentration
From the text: as §1

[17] = system: Pseudomonas aeruginosa KY 8511; experiment: MIC, agar dilution method at pH 7.2; assay type: cell-based; conditions: KY8511, Pseudomonas aeruginosa KY 8511 (gentamicin acetyltransferase Type I and neomycin-kanamycin phosphotransferase Type I), read-out: Minimum Inhibitory Concentration
From the text: ^6 produces gentamicin acetyltransferase Type I and neomycin-kanamyci

Escherichia coli KY 8348 [18] = experiment: MIC, agar dilution method at pH 7.2; assay type: cell-based; conditions: KY8348, Escherichia coli KY 8348 (gentamicin acetyltransferase Type I), read-out: Minimum Inhibitory Concentration
[19] = system: Pseudomonas aeruginosa KY 8516; experiment: MIC, agar dilution method at pH 7.2; assay type: cell-based; conditions: KY8516, Pseudomonas aeruginosa KY 8516 (probably kanamycin acetyltransferase), read-out: Minimum Inhibitory Concentration
[20] = system: Pseudomonas aeruginosa KY 8510; experiment: MIC, agar dilution method at pH 7.2; assay type: cell-based; conditions: KY8510, Pseudomonas aeruginosa KY 8510 (kanamycin acetyltransferase), read-out: Minimum Inhibitory Concentration
Proteus rettgeri KY 4288 = experiment: MIC, agar dilution method at pH 7.2; assay type: cell-based; conditions: Providencia rettgeri, KY4288, pH 7.2, read-out: Minimum Inhibitory Concentration
[21] = in water and methanol; cited from earlier work
[22] = Staphylococcus aureus ATC 6538P, agar dilution, pH 8.0, read-out: minimum Inhibitory Concentration
[23] = Bacillus subtilis No. 10707, agar dilution, pH 8.0, read-out: minimum Inhibitory Concentration
[24] = Staphylococus aureus Smith, agar dilution, pH 7.2, read-out: Minimum Inhibitory Concentration
[25] = Staphylococcus aureus, pH 8, read-out: minimum Inhibitory Concentration
[26] = Bacillus subtilis, NO.10707, pH 8, read-out: minimum Inhibitory Concentration
[27] = Proteus vulgaris 6897, agar dilution, pH 7.2, read-out: Minimum Inhibitory Concentration

Structure (SMILES) | MIC (Escherichia coli KY 8327 [1]) | MIC (Providencia sp. 164) | MIC [4] | MIC (Escherichia coli KY 8349) | MIC (Escherichia coli KY 8321) | MIC [5] | MIC [6] | MIC [7] | MIC (Escherichia coli ATC 26) | MIC (Escherichia coli KY 8327 [8]) | MIC (Escherichia coli KY 8348 [9]) | MIC [10] | MIC [11] | MIC [12] | MIC [14] | MIC [15] | MIC (Proteus mirabilis 1287) | MIC [16] | MIC [17] | MIC (Escherichia coli KY 8348 [18]) | further results
CNCC1CCC(N)C(OC2C(N)CC(NC(=O)C(O)CN)C(OC3OCC(C)(O)C(NC)C3O)C2O)O1 (racemic) [DL-form] | 0.4 µg/mL (≈ 0.726 µM) | 12.5 µg/mL (≈ 22.7 µM) | 0.016 µg/mL (≈ 0.0291 µM) | 0.2 µg/mL (≈ 0.363 µM) | 0.2 µg/mL (≈ 0.363 µM) | 1.04 µg/mL (≈ 1.89 µM) | 0.033 µg/mL (≈ 0.0599 µM) | 0.78 µg/mL (≈ 1.42 µM) | 0.008 µg/mL (≈ 0.0145 µM) | 0.004 µg/mL (≈ 0.00726 µM) | 0.004 µg/mL (≈ 0.00726 µM) | 0.004 µg/mL (≈ 0.00726 µM) | 0.033 µg/mL (≈ 0.0599 µM) | 0.2 µg/mL (≈ 0.363 µM) | 0.1 µg/mL (≈ 0.182 µM) | 1.56 µg/mL (≈ 2.83 µM) | 3.12 µg/mL (≈ 5.67 µM) | 0.1 µg/mL (≈ 0.182 µM) | 3.12 µg/mL (≈ 5.67 µM) | 0.2 µg/mL (≈ 0.363 µM) | MIC [2, 22]: 0.065 µg/mL (≈ 0.118 µM); MIC [3, 23]: 0.008 µg/mL (≈ 0.0145 µM); MIC [13, 24]: 0.05 µg/mL (≈ 0.0908 µM); MIC (Proteus morganii KY 4298): 0.78 µg/mL (≈ 1.42 µM); MIC (Sarcina lutea ATCC 9341): 0.4 µg/mL (≈ 0.726 µM); MIC (Proteus vulgaris 6897; Proteus vulgaris, 6897, pH 7.2, read-out: Minimum Inhibitory Concentration): 3.12 µg/mL (≈ 5.67 µM); MIC (Escherichia coli T-5): 0.4 µg/mL (≈ 0.726 µM); MIC (Escherichia coli T-2): 0.4 µg/mL (≈ 0.726 µM); MIC [19]: 3.12 µg/mL (≈ 5.67 µM); MIC [20]: 3.12 µg/mL (≈ 5.67 µM); MIC (Proteus rettgeri KY 4288): 0.78 µg/mL (≈ 1.42 µM)
CNCC1CCC(N)C(OC2C(N)CC(NC(=O)[C@H](O)CN)C(OC3OCC(C)(O)C(NC)C3O)C2O)O1 (stereo partly drawn) [D-form] | 0.2 µg/mL (≈ 0.363 µM) | 6.25 µg/mL (≈ 11.4 µM) | 0.008 µg/mL (≈ 0.0145 µM) | 0.2 µg/mL (≈ 0.363 µM) | 0.2 µg/mL (≈ 0.363 µM) | 2.08 µg/mL (≈ 3.78 µM) | 0.004 µg/mL (≈ 0.00726 µM) | 1.56 µg/mL (≈ 2.83 µM) | 0.004 µg/mL (≈ 0.00726 µM) | 0.004 µg/mL (≈ 0.00726 µM) | 0.004 µg/mL (≈ 0.00726 µM) | 0.004 µg/mL (≈ 0.00726 µM) | 0.033 µg/mL (≈ 0.0599 µM) | 0.2 µg/mL (≈ 0.363 µM) | 0.05 µg/mL (≈ 0.0908 µM) | 1.56 µg/mL (≈ 2.83 µM) | 3.12 µg/mL (≈ 5.67 µM) | 0.05 µg/mL (≈ 0.0908 µM) | 3.12 µg/mL (≈ 5.67 µM) | 0.2 µg/mL (≈ 0.363 µM) | MIC [2, 25]: 0.004 µg/mL (≈ 0.00726 µM); MIC [3, 26]: 0.004 µg/mL (≈ 0.00726 µM); MIC (Proteus vulgaris 6897; [27]): 0.78 µg/mL (≈ 1.42 µM); MIC (Escherichia coli T-2): 0.2 µg/mL (≈ 0.363 µM); MIC [20]: 3.12 µg/mL (≈ 5.67 µM)
NC[C@H]1O[C@H](O[C@H]2[C@H](O)[C@@H](O[C@H]3O[C@H](CO)[C@@H](O)[C@H](N)[C@H]3O)[C@H](N)C[C@@H]2N)[C@H](O)[C@@H](O)[C@@H]1O [Kanamycin A, kanamycin A, reference compound] |  |  |  |  |  |  |  |  |  |  |  | 0.08 µg/mL (≈ 0.165 µM) |  |  |  |  |  |  |  |  | MIC ([13]; pH 7.2, read-out: Minimum Inhibitory Concentration): 0.2 µg/mL (≈ 0.413 µM)
CNCC1CCC(N)C(OC2C(N)CC(NC(=O)[C@@H](O)CN)C(OC3OCC(C)(O)C(NC)C3O)C2O)O1 (stereo partly drawn) [L-form] | 0.2 µg/mL (≈ 0.363 µM) | 6.25 µg/mL (≈ 11.4 µM) | 0.008 µg/mL (≈ 0.0145 µM) | 0.2 µg/mL (≈ 0.363 µM) | 0.4 µg/mL (≈ 0.726 µM) | 1.04 µg/mL (≈ 1.89 µM) | 0.004 µg/mL (≈ 0.00726 µM) | 0.78 µg/mL (≈ 1.42 µM) | 0.004 µg/mL (≈ 0.00726 µM) | 0.004 µg/mL (≈ 0.00726 µM) | 0.004 µg/mL (≈ 0.00726 µM) | 0.004 µg/mL (≈ 0.00726 µM) | 0.033 µg/mL (≈ 0.0599 µM) | 0.2 µg/mL (≈ 0.363 µM) | 0.05 µg/mL (≈ 0.0908 µM) | 1.56 µg/mL (≈ 2.83 µM) | 3.12 µg/mL (≈ 5.67 µM) | 0.05 µg/mL (≈ 0.0908 µM) | 3.12 µg/mL (≈ 5.67 µM) | 0.2 µg/mL (≈ 0.363 µM) | MIC [2, 25]: 0.004 µg/mL (≈ 0.00726 µM); MIC [3, 26]: 0.004 µg/mL (≈ 0.00726 µM); MIC (Proteus vulgaris 6897; [27]): 1.56 µg/mL (≈ 2.83 µM); MIC [20]: 3.12 µg/mL (≈ 5.67 µM)
CNC[C@@H]1CC[C@@H](N)[C@@H](O[C@H]2[C@H](O)[C@@H](O[C@H]3OC[C@](C)(O)[C@H](NC)[C@H]3O)[C@H](N)C[C@@H]2N)O1 [XK-62-2, reference compound] |  |  |  |  |  |  |  |  |  |  |  |  |  |  |  |  |  |  |  |  | MIC [2, 22]: 0.008 µg/mL (≈ 0.0173 µM); MIC [3, 23]: 0.004 µg/mL (≈ 0.00863 µM); solubility [21]: freely soluble; MIC [13, 24]: < 0.05 µg/mL
